According to patent publication US10736900B2, “Combinations of an FGFR inhibitor and an IGF1R inhibitor” (ASTEX THERAPEUTICS LTD, priority 2014, dated 2020):
pIC50: −log10 of the molar value.

Legend:
[1] = test system: most sensitive cancer cell lines; test: Cell based proliferation assay (alamar blue assay), cancer cell lines; conditions: read-out: IC50 in the most sensitive cancer cell lines
Experimental: Cells were seeded in 180 μl of medium at optimized cell densities in black 96 well plates with clear flat bottom. The outer wells were filled with 180 μl of medium. Cells were incubated for 24 hours at 37° C. and 5% CO2.
Compound/medium plates were placed on a shaker for 10 minutes and then 20 μl of compound in medium was added to the cells (10× dilution). Cells were incubated at 37° C. and 5% CO2 for 4 days until alamarBlue® readout.
After 4 days of incubation with compound: Add 40 μl of alamarBlue® ready to use mix to each well. Incubate plates at 37° C. and 5% CO2. Measure plates after 4 or 6 hours of incubation (depends on cell line).

[2] = test system: DMS114 cells, a small cell lung cancer cell line with FGFR1 amplification; test: Alamar blue proliferation assay, parental DMS114 cells; type: cell-based; conditions: Homo sapiens, DMS-114, 96 h, Parental cells (with DMSO control), 4 days
[3] = test system: resistant DMS114 cells; test: Alamar blue proliferation assay, DMS114 cells resistant to compound A; type: cell-based
[4] = test system: DMS114 cells; test: Incucyte proliferation (% confluence over time), DMS114 cells, long-term treatment; type: cell-based; conditions: compound A 1 microM, BMS-754807 300 nM, GSK1838705A 1 microM, each alone
Experimental: The insensitive cells were isolated and profiled with the aim to determine the active signaling pathways that act as drivers for their survival and/or proliferation. Therefore, DMS114 cells, a small cell lung cancer cell line with FGFR1 amplification were plated onto 10 cm culture plates and placed in an incubator at 37° C., 5% CO2. […] In the case of the parental cells with or without DMSO control, when the cells reached the confluence close to 100% they were trypsinized and re-plated back on the plate. […] After about 2-3 weeks from the initial treatment, cells were taken out of the plate by trypsinization and passaged on new plate for further expanding.
There were also treatments of the cells with single agents with or without DMSO or treatments with DMSO alone to serve as vehicle control. The proliferation of the cells was followed using the Incucyt machine, measuring the % of confluence of the cells over time.

[5] = test system: resistant DMS114 cells; test: Incucyte proliferation, resistant DMS114 cells kept in compound A, long-term treatment; type: cell-based; conditions: resistant DMS114 cells kept in compound A 1 microM; GSK1838705A 1 microM; over 33 days
Excerpt: An additional experiment was run wherein the resistant DMS114 cells were exposed to 1 microM of GSK1838705A and the growth/proliferation of the cells was monitored on the Incucyte machine. Cells were kept under this condition for over 33 days, and the medium was replaced twice a week.

COc1cc(OC)c(F)c(N(Cc2ncc[nH]2)c2ccc3ncc(-c4cnn(C)c4)nc3n2)c1 [compound B, N-(2-fluoro-3,5-dimethoxyphenyl)-N-(1H-imidazol-2-ylmethyl)-3-(1-methyl-1H-pyrazol-4-yl)pyrido[2,3-b]pyrazin-6-amine]
pIC50 [1]: > 8.00

CNC(=O)c1c(F)cccc1Nc1nc(Nc2cc3c(cc2OC)CCN3C(=O)CN(C)C)nc2[nH]ccc12 [GSK1838705A]
pIC50 [2]: < 5.00
pIC50 ([3]; Homo sapiens, DMS-114, 96 h, Resistant cells, 4 days): 5.70
inhibition of proliferation of resistant DMS114 cells ([3]; resistant DMS114 cells): strongly inhibited the proliferation of the resistant DMS114 cells
proliferation (% confluence over time), single agent [4]: did not impact the proliferation
proliferation of resistant cells, long term treatment [5]: completely blocked and over the long term treatment (>30 days) did not gain ability to grow out

C[C@@]1(C(=O)Nc2ccc(F)nc2)CCCN1c1nc(Nc2cc(C3CC3)[nH]n2)c2cccn2n1 [BMS-754807]
proliferation (% confluence over time), single agent [4]: did not impact the proliferation
